This note sets out measurements from patent publication US20250136578A1 (Kolm Therapeutics Inc., priority 2023, published 2025).

Read-outs that look alike come from different tables or passages of the source.

The target in one experiment is AR / CBP ternary complex (Homo sapiens, UniProt P10275+Q92793). The experiment is described as follows: Ternary complex formation assay (sandwich ELISA, AR capture, CBP antibody detection) in VCaP cell lysates. The experiment is classed as cell-based. In a few lines:
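VCaP cells in 5% charcoal-stripped FBS were cultured ≥3 days and then given bifunctional compound for 1.5 h. Lysates went onto AR-antibody-coated plates. Bound CBP (or p300) was detected with a rabbit antibody plus HRP anti-rabbit, using QuantaRed chemifluorescence (ex 570/em 585) read immediately, at 5 min and at 15 min.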
In general terms: In an ELISA, binding on a coated surface is turned into a signal by an enzyme label.

The subject of a further experiment is VCaP cells. The experiment is described as follows: VCaP growth inhibition assay (CTG). It counts as cell-based. Conditions: Homo sapiens, 216 h, 30 pM R1881, 9 days. The procedure, abridged: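 VCaP cells in phenol red-free DMEM with 5% charcoal-stripped serum were stimulated with 30 pM R1881 (final) and treated with compound from 100 nM to 10 fM final (1:5 dilutions) for 9 days at 37 °C. Viability was read by CellTiter-Glo luminescence, and IC50 came from 4-parameter logistic fits.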

Where [1] appears, read: treated 1.5 hours, rabbit CBP or p300 antibody detection, average, read-out: Average Ternary Complex.

The IC50 is the concentration at which inhibition is half-maximal. Low readings indicate greater potency in that assay, high ones weaker potency in that assay.

AR / CBP ternary complex, sequence (P10275 whole entry): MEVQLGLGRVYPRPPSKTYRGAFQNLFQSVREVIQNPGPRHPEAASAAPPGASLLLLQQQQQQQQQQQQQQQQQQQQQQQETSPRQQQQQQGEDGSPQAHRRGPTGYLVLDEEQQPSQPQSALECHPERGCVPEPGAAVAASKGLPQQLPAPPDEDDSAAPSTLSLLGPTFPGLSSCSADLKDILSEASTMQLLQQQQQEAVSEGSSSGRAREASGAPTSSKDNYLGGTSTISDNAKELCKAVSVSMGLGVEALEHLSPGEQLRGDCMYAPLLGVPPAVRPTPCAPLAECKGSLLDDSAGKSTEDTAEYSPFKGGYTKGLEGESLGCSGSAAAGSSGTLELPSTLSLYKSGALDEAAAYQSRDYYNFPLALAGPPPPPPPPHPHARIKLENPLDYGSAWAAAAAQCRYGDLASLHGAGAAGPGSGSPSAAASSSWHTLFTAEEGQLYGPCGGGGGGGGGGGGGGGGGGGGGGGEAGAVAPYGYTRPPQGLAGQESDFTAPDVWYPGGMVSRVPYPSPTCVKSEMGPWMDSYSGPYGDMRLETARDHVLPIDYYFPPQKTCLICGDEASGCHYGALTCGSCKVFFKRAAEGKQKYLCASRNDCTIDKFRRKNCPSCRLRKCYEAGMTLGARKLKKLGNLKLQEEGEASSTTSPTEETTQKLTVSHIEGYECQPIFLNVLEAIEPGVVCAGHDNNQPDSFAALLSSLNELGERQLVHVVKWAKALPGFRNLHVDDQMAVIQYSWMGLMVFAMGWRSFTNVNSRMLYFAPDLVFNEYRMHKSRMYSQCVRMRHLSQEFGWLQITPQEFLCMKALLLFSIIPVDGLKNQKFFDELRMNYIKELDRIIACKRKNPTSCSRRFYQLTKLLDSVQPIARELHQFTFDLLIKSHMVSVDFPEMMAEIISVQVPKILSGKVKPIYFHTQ
AR / CBP ternary complex, sequence (Q92793 2-2442): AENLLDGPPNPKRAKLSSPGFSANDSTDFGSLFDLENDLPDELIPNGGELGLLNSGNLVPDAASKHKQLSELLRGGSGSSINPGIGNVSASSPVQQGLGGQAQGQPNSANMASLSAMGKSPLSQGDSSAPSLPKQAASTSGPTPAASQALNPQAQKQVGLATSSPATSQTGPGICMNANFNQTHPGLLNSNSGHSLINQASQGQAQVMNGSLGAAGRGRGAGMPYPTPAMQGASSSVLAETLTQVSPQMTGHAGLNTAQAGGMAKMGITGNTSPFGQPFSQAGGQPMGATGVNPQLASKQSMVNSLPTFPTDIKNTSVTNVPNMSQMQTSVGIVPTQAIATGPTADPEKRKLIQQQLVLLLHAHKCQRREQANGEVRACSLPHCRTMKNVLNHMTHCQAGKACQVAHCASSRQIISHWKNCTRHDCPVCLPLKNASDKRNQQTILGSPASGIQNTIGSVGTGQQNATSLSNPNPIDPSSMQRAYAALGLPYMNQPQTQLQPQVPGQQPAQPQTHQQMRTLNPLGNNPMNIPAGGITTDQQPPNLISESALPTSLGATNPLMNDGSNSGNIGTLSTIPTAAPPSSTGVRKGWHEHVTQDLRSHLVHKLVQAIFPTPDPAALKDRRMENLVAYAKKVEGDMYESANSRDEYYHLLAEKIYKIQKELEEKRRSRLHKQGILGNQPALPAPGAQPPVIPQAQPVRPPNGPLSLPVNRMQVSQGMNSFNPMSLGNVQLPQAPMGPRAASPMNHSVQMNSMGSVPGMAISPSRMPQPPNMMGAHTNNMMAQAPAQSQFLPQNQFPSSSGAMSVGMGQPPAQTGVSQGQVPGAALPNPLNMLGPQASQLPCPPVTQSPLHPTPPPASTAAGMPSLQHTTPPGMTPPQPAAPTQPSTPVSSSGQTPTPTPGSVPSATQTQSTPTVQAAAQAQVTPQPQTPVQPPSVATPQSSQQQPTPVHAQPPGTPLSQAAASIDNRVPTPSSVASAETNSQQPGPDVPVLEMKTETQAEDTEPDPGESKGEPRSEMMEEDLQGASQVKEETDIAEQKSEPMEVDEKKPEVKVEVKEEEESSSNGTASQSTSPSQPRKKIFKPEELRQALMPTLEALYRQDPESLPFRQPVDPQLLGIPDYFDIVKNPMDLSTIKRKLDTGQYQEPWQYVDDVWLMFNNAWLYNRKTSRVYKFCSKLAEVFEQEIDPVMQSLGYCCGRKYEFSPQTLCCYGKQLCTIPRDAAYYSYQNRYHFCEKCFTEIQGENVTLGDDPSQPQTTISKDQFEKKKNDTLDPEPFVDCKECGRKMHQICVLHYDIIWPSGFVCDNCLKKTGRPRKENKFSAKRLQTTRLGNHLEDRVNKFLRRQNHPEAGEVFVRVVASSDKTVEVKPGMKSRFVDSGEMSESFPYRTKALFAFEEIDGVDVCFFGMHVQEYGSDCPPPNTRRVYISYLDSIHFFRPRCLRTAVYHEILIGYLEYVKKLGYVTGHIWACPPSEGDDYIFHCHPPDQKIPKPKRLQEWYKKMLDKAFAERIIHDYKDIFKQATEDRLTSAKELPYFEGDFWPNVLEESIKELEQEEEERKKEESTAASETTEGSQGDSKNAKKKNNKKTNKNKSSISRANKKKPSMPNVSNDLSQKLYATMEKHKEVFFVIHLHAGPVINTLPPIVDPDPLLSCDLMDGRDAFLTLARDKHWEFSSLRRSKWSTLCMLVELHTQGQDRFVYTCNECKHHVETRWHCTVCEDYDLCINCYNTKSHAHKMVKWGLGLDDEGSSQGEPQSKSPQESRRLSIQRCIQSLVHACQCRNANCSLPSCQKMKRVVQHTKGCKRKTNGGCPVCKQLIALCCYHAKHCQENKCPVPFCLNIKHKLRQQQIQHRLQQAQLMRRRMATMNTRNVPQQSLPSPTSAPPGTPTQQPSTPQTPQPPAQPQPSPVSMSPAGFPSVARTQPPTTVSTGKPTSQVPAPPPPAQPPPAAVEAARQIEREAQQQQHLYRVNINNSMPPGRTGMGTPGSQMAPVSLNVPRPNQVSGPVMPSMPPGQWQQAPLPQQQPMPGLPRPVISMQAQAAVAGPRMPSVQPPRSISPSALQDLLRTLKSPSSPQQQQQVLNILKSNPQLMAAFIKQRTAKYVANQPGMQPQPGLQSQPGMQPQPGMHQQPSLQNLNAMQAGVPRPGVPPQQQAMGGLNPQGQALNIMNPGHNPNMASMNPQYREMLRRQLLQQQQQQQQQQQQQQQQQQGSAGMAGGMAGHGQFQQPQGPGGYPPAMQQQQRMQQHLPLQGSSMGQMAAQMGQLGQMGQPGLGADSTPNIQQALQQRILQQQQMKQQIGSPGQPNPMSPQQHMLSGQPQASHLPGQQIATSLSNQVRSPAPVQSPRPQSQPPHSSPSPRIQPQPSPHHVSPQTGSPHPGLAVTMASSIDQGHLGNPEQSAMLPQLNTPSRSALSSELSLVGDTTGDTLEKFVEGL

As for `CN1C(=O)CCc2cc(N3CCCc4cc(-c5ccc(CCC6CCN(c7ccc(C(=O)N[C@H]8CC[C@H](Oc9ccc(C#N)c(Cl)c9)CC8)nn7)CC6)nc5)c(C(F)F)cc43)ccc21` [Compound 59, N-[4-(3-chloro-4-cyano-phenoxy)cyclohexyl]-6-[4-[2-[5-[7-(difluoromethyl)-1-(1-methyl-2-oxo-3,4-dihydroquinolin-6-yl)-3,4-dihydro-2H-quinolin-6-yl]-2-pyridyl]ethyl]-1-piperidyl]pyridazine-3-carboxamide], the EC50 at AR / CBP ternary complex (setting [1]) is greater than 100 nM. This compound had an IC50 in the experiment on VCaP cells greater than 100 nM.
In the case of `CC(=O)N1CCc2c(c(N3CCCc4cc(-c5cnn(C)c5)c(C(F)F)cc43)nn2[C@H]2CC[C@H](CC3CCN(c4ccc(C(=O)N[C@H]5CC[C@H](Oc6ccc(C#N)c(Cl)c6)CC5)nn4)CC3)CC2)C1` [Compound 145, 6-[4-[[4-[5-acetyl-3-[7-(difluoromethyl)-6-(1-methylpyrazol-4-yl)-3,4-dihydro-2H-quinolin-1-yl]-6,7-dihydro-4H-pyrazolo[4,3-c]pyridin-1-yl]cyclohexyl]methyl]-1-piperidyl]-N-[4-(3-chloro-4-cyano-phenoxy)cyclohexyl]pyridazine-3-carboxamide], the EC50 on AR / CBP ternary complex (setting [1]) is less than 1 nM. For the same compound, the IC50 with VCaP cells was 0.1 to 1 nM.
Consider `CC(=O)N1CCc2c(c(N3CCCc4cc(-c5cnn(C)c5)c(C(F)F)cc43)nn2C2CCN(C(=O)C3CCN(c4ccc(C(=O)N[C@H]5CC[C@H](Oc6ccc(C#N)c(Cl)c6)CC5)cc4)CC3)CC2)C1` [Compound 159, 4-[4-[4-[5-acetyl-3-[7-(difluoromethyl)-6-(1-methylpyrazol-4-yl)-3,4-dihydro-2H-quinolin-1-yl]-6,7-dihydro-4H-pyrazolo[4,3-c]pyridin-1-yl]piperidine-1-carbonyl]-1-piperidyl]-N-[4-(3-chloro-4-cyano-phenoxy)cyclohexyl]benzamide], for which the EC50 at AR / CBP ternary complex (setting [1]) is less than 1 nM. Also, the IC50 in the experiment with VCaP cells is no more than 0.1 nM.
As to `CC(=O)N1CCc2c(c(N3CCCc4cc(-c5cnn(C)c5)c(C(F)F)cc43)nn2[C@H]2CC[C@@]3(CCN(C4CN(c5ccc(C(=O)N[C@H]6CC[C@H](Oc7ccc(C#N)c(Cl)c7)CC6)nn5)C4)C3)CC2)C1` [Compound 263, 6-[3-[8-[5-acetyl-3-[7-(difluoromethyl)-6-(1-methylpyrazol-4-yl)-3,4-dihydro-2H-quinolin-1-yl]-6,7-dihydro-4H-pyrazolo[4,3-c]pyridin-1-yl]-2-azaspiro[4.5]decan-2-yl]azetidin-1-yl]-N-[4-(3-chloro-4-cyano-phenoxy)cyclohexyl]pyridazine-3-carboxamide], the EC50 on AR / CBP ternary complex (setting [1]) was less than 1 nM. In addition, the IC50 in the experiment with VCaP cells was no more than 0.1 nM.
As to `CC(=O)N1CCc2c(c(N3CCCc4cc(-c5ccc(CCC6CCN(c7ccc(C(=O)N[C@H]8CC[C@H](Oc9ccc(C#N)c(Cl)c9)CC8)cn7)CC6)cc5)c(C(F)F)cc43)nn2C2CCOCC2)C1` [Compound 168, 6-[4-[2-[4-[1-(5-acetyl-1-tetrahydropyran-4-yl-6,7-dihydro-4H-pyrazolo[4,3-c]pyridin-3-yl)-7-(difluoromethyl)-3,4-dihydro-2H-quinolin-6-yl]phenyl]ethyl]-1-piperidyl]-N-[4-(3-chloro-4-cyano-phenoxy)cyclohexyl]pyridine-3-carboxamide], the EC50 on AR / CBP ternary complex (setting [1]) was 10 to 100 nM. Further, in the experiment on VCaP cells, the half-inhibitory concentration (IC50) was no more than 0.1 nM.
As to `CC(=O)N1CCc2c(c(N3CCCc4cc(C)ncc43)nn2C2CCN(CC3CCN(c4ccc(C(=O)N[C@H]5CC[C@H](Oc6ccc(C#N)c(Cl)c6)CC5)nn4)CC3)CC2)C1` [Compound 107, 6-[4-[[4-[5-acetyl-3-(6-methyl-3,4-dihydro-2H-1,7-naphthyridin-1-yl)-6,7-dihydro-4H-pyrazolo[4,3-c]pyridin-1-yl]-1-piperidyl]methyl]-1-piperidyl]-N-[4-(3-chloro-4-cyano-phenoxy)cyclohexyl]pyridazine-3-carboxamide], the EC50 on AR / CBP ternary complex (setting [1]) is less than 1 nM. Further, the IC50 with VCaP cells is no more than 0.1 nM.
Consider `CN1C(=O)CCc2cc(N3CCCc4cc(-c5ccc(CCC6CCN(c7ccc(C(=O)N[C@H]8CC[C@H](Oc9ccc(C#N)c(Cl)c9)CC8)nn7)CC6)nc5)ncc43)ccc21` [Compound 60, N-[4-(3-chloro-4-cyano-phenoxy)cyclohexyl]-6-[4-[2-[5-[1-(1-methyl-2-oxo-3,4-dihydroquinolin-6-yl)-3,4-dihydro-2H-1,7-naphthyridin-6-yl]-2-pyridyl]ethyl]-1-piperidyl] pyridazine-3-carboxamide], for which the EC50 on AR / CBP ternary complex (setting [1]) was greater than 100 nM. In the experiment with VCaP cells, the concentration for half-maximal inhibition (IC50) was greater than 100 nM.
As to `CC(=O)N1CCc2c(c(-c3cccc4cc(C5CC5)ncc34)nn2C2CCN(C(=O)C3CCN(c4ccc(C(=O)N[C@H]5CC[C@H](Oc6ccc(C#N)c(Cl)c6)CC5)nn4)CC3)CC2)C1` [Compound 170, 6-[4-[4-[5-acetyl-3-(3-cyclopropyl-8-isoquinolyl)-6,7-dihydro-4H-pyrazolo[4,3-c]pyridin-1-yl]piperidine1-carbonyl]-1-piperidyl]-N-[4-(3-chloro-4-cyano-phenoxy)cyclohexyl]pyridazine-3-carboxamide], on AR / CBP ternary complex (setting [1]), the EC50 was less than 1 nM. This compound also had an IC50 in the experiment on VCaP cells of 0.1 to 1 nM.
For the compound `CC(=O)N1CCc2c(c(-c3cccc4cc(-c5ccc(CC6CCN(c7ccc(C(=O)N[C@H]8CC[C@H](Oc9ccc(C#N)c(Cl)c9)CC8)nn7)CC6)nc5)ncc34)nn2C2CCOCC2)C1` [Compound 23, 6-[4-[[5-[8-(5-acetyl-1-tetrahydropyran-4-yl-6,7-dihydro-4H-pyrazolo[4,3-c]pyridin-3-yl)-3-isoquinolyl]-2-pyridyl]methyl]-1-piperidyl]-N-[4-(3-chloro-4-cyano-phenoxy)cyclohexyl]pyridazine-3-carboxamide], at AR / CBP ternary complex (setting [1]), the EC50 is less than 1 nM. In addition, the IC50 with VCaP cells is 0.1 to 1 nM.
With `COc1cc(O[C@H]2CC[C@H](NC(=O)c3ccc(N4CCC(CN5CCC(n6nc(-c7cccc8cc(-c9cnn(C)c9)ncc78)c7c6CCN(C(C)=O)C7)CC5)CC4)cc3)CC2)ccc1C#N` [Compound 163, 4-[4-[[4-[5-acetyl-3-[3-(1-methylpyrazol-4-yl)-8-isoquinolyl]-6,7-dihydro-4H-pyrazolo[4,3-c]pyridin-1-yl]-1-piperidyl]methyl]-1-piperidyl]-N-[4-(4-cyano-3-methoxy-phenoxy)cyclohexyl]benzamide], at AR / CBP ternary complex (setting [1]), the EC50 is less than 1 nM. Also, the concentration for half-maximal inhibition (IC50) in the experiment on VCaP cells is no more than 0.1 nM.
The corresponding values for `COC(=O)N1c2ccc3c(nc(Cc4ccccc4)n3[C@@H]3CCC[C@H](OC4CCN(c5ccc(C(=O)N[C@H]6CC[C@H](Oc7ccc(C#N)c(Cl)c7)CC6)nn5)CC4)C3)c2CC[C@@H]1C` [Compound 244, methyl (7S)-2-benzyl-3-[3-[[1-[6-[[4-(3-chloro-4-cyano-phenoxy)cyclohexyl]carbamoyl]pyridazin-3-yl]-4-piperidyl]oxy]cyclohexyl]-7-methyl-8,9-dihydro-7H-imidazo[4,5-f]quinoline-6-carboxylate] are less than 1 nM and 0.1 to 1 nM.
For `CC(=O)N1CCc2c(c(-c3cccc4cc(-c5ccc(CCN6CCN(c7ccc(C(=O)N[C@H]8CC[C@H](Oc9ccc(C#N)c(Cl)c9)CC8)nn7)CC6)nc5)ncc34)nn2C2CCOCC2)C1` [Compound 28, 6-[4-[2-[5-[8-(5-acetyl-1-tetrahydropyran-4-yl-6,7-dihydro-4H-pyrazolo[4,3-c]pyridin-3-yl)-3-isoquinolyl]-2-pyridyl]ethyl]piperazin-1-yl]-N-[4-(3-chloro-4-cyano-phenoxy)cyclohexyl]pyridazine-3-carboxamide], in that order: less than 1 nM and no more than 0.1 nM.
For `CC(=O)N1CCc2c(c(N3CCCc4cc(-c5cnn(C)c5)c(C(F)F)cc43)nn2[C@@H]2C[C@H]3CC[C@@H](C2)N3CC2CCN(c3ccc(C(=O)N[C@H]4CC[C@H](Oc5ccc(C#N)c(Cl)c5)CC4)nn3)CC2)C1` [Compound 152, 6-[4-[[(1R,5S)-3-[5-acetyl-3-[7-(difluoromethyl)-6-(1-methylpyrazol-4-yl)-3,4-dihydro-2H-quinolin-1-yl]-6,7-dihydro-4H-pyrazolo[4,3-c]pyridin-1-yl]-8-azabicyclo[3.2.1]octan-8-yl]methyl]-1-piperidyl]-N-[4-(3-chloro-4-cyano-phenoxy)cyclohexyl]pyridazine-3-carboxamide], the EC50 at AR / CBP ternary complex (read-out: Average Ternary Complex, treated 1.5 hours, rabbit CBP or p300 antibody detection) is less than 1 nM. In the experiment on VCaP cells, this compound had an IC50 of 0.1 to 1 nM.
Turning to `Cc1cc2c(N3CCN(C)c4cc(-c5cnn(C)c5)c(C#N)cc43)cc(OCCOC3CCN(c4ccc(C(=O)N[C@H]5CC[C@H](Oc6ccc(C#N)c(Cl)c6)CC5)nn4)CC3)cc2n(C)c1=O` [Compound 39, N-[4-(3-chloro-4-cyano-phenoxy)cyclohexyl]-6-[4-[2-[[5-[7-cyano-4-methyl-6-(1-methylpyrazol-4-yl)-2,3-dihydroquinoxalin-1-yl]-1,3-dimethyl-2-oxo-7-quinolyl]oxy]ethoxy]-1-piperidyl]pyridazine-3-carboxamide], the EC50 at AR / CBP ternary complex (setting [1]) is less than 1 nM. This compound came in with an IC50 in the experiment on VCaP cells of no more than 0.1 nM.
For `CC(=O)N1CCc2c(c(N3CCCc4cc(-c5cnn(C)c5)c(C(F)F)cc43)nn2C2CCN(CC3CC4CC3CN4c3ccc(C(=O)N[C@H]4CC[C@H](Oc5ccc(C#N)c(Cl)c5)CC4)nn3)CC2)C1` (stereo partly drawn) [Compound 169, 6-[5-[[4-[5-acetyl-3-[7-(difluoromethyl)-6-(1-methylpyrazol-4-yl)-3,4-dihydro-2H-quinolin-1-yl]-6,7-dihydro-4H-pyrazolo[4,3-c]pyridin-1-yl]-1-piperidyl]methyl]-2-azabicyclo [2.2.1]heptan-2-yl]-N-[4-(3-chloro-4-cyano-phenoxy)cyclohexyl]pyridazine-3-carboxamide], the EC50 at AR / CBP ternary complex (setting [1]) was less than 1 nM. In addition, the IC50 in the experiment on VCaP cells was no more than 0.1 nM.
